Reference: patent publication US20060281088A1, “Markers for lxr activation” (priority 2003, published 2006)

Experiments:
THP1 macrophages [1] = assay: Gene expression measurement by Taqman quantitative RT-PCR in THP1 macrophages; assay type: cell-based, human; conditions: result in words
From the text: Three oligonucleotides are used: a forward primer, a reverse primer, and a probe. All of them are specific for the target and are able to bind to it. The TaqMan assay uses a probe technology that exploits 5′→3′-nuclease activity of an enzyme, the most commonly used being Taq polymerase. The assay efficiency is largely dependent on this 5′→3′ nuclease activity. In this regard one should be careful in choosing a suitable polymerase. […] The probe is an oligonucleotide with a reporter dye at the 5′ end and a quencher dye at the 3′ end. The fluorescent reporter dye is attached covalently to the 5′ end and can be FAM (6-carboxyfluorescein), TET (tetrachloro-6-carboxyfluorescein), JOE (2,7-dimethoxy-4,5-dichloro-6-carboxyfluorescein), HEX (hexacholoro-6-carboxyfluorescein), or VIC. The reporter is quenched by TAMRA (6-carboxytetramethylrhodamine), bound to the 3′ end by a linker arm. […] An advantage of using DABCYL in the TaqMan probes is its reduced autofluorescence compared with TAMRA When the probe is intact the quencher dye absorbs the fluorescence of the reporter dye due to the proximity between both. […] By the 5′-exonuclease activity of the Taq:polymerase the probe is hydrolyzed and the reporter dye is separated from the quencher, resulting in an increase in fluorescence emission. […]

THP1 macrophages [2] = assay: Gene expression measurement by Gene Chip Microarray in THP1 macrophages; assay type: cell-based, human; conditions: Gene Chip Microarray analysis, result in words
Experimental: Cells were incubated at 37° C. and 5.2% CO2. For experimental treatments, cells were seeded at a density of 1×10^6/ml in 6-well plates in medium containing 100 nM phorbol 12-myristate 13-acetate (PMA) for 72 hours to fully differentiate them into adherent macrophages. The medium was then replaced by culture medium containing PMA with vehicle (DMSO) or test compound for 6 or 24 hours prior to harvesting. Total RNA was isolated using the TriZol reagent (Life Technologies) or the RNeasy mini kit (Qiagen) according to the manufacturer's protocols. To remove contaminating DNA, the samples were treated with RNAse free DNAse (GibCo).
Synthesis of first and second strand cDNA were performed using the SuperScript Choice Gene Chip Kit (Life Technologies) and reagents from Gibco. The double stranded cDNA, containing an incorporated T7 RNA polymerase binding site, was purified by extraction with a mix of phenol:chloroform:isoamylalcohol (Life Technologies). The organic and aqueous phases were separated by Phase Lock Gel (Eppendorf) and double-stranded cDNA was recovered by precipitation according to the manufacturer's protocol and then resuspended in water.
The double-stranded cDNA was converted to biotin-labeled cRNA by in vitro transcription (IVT) using a T7 kit (Ambion) and biotin-containing ribonucleotides (Enzo-LOXO GmbH). […]

## O=S(=O)(c1ccccc1)N(CC(F)(F)F)c1ccc(C(O)(C(F)(F)F)C(F)(F)F)cc1 [T0901317]
THP1 macrophages [1]
  Gene expression changes for ABCA1, ABCG1, APOC1, APOE, ASM3A, CDC42EP4, CXCR4, FASN, LDLR, NR1H3, VLDLR: robust and significant increase in expression
THP1 macrophages [2]
  Gene expression changes of the listed marker genes (ABCA1, ABCG1, APOC1, APOE, ASM3A, C3F, CDC42EP4, CXCR4 ... PRKCI): strong induction
